Assay results from paper PMC6191125, “Peptidoglycan potentiates the membrane disrupting effect of the carboxyamidated form of DMS-DA6, a Gram-positive selective antimicrobial peptide isolated from Pachymedusa dacnicolor skin” (PLoS ONE, 2018).
Converted amounts (≈) assume the structure as drawn. Residues, ends and D or L forms follow the SMILES beside them.

How the values were obtained:
S. aureus ATCC 29213 = format: cell-based, Staphylococcus aureus
Excerpt: (§1) Gram-negative bacterial strains, Escherichia coli ATCC 8739, Escherichia coli ATCC 35218, Escherichia coli ML 35p, Escherichia coli K12, Pseudomonas aeruginosa ATCC 27853, and Gram-positive bacterial strains, Enterococcus faecalis ATCC29212, Kocuria rhizophila ATCC 9341, Staphylococcus aureus ATCC 6538, Staphylococcus aureus ATCC 29213, Staphylococcus aureus ST 1065, Staphylococcus epidermidis BM 3302, and Bacillus subtilis subsp. subtilis CIP 52.65, as well as two multiresistant strains (Staphylococcus aureus DAR 5829 (http://www.ncbi.nlm.nih.gov/bioproject/228435) and Enterococcus faecium BM 4147 [20] were cultured as described previously. The minimal inhibitory concentration (MIC) of the peptides was determined by the microtiter broth dilution method. Overnight precultures were subcultured in Luria Bertani (LB) medium at 37°C with vigorous shaking until mid-log phase (~2h) and diluted to 10^7 cfu/mL. Peptide solutions were prepared at different concentrations (from 2 to 500 μM) by successive 2-fold dilutions in water from 1 mM stock solutions. In each row of a 96-well nonbinding surface plate, 90 μL of bacteria were incubated with 10 μL of peptide solutions for 18 h at 37°C. The final peptide concentrations ranged from 0.2 to 100 μM. Cell growth was evaluated by visual inspection and absorbance at 600 nm to determine the lowest concentration of peptide that prevented cell growth. Wells were either opaque, indicating stationary phase growth, or transparent indicating no growth. The lowest concentration showing no visible growth was considered as the MIC. After measurement of the MIC, the bactericidal activity was determined by the addition of resazurin dye (30 μL, 0.01% w/v) to each well [22]. The plates were further incubated at 37°C for 18 h. Wells in which the dye turned pink indicated live bacteria, whereas wells in which the dye remained blue indicated dead bacteria. The minimal bactericidal concentration (MBC) is the lowest concentration with blue coloration (99.9% of bacteria were killed). Three to five independent assays were performed in triplicate. Positive controls correspond to medium plus 0.2% formaldehyde and negative controls to medium without peptide.

S. aureus ST 1065 = format: cell-based, Staphylococcus aureus
Excerpt: as §1

S. aureus DAR 5829 = format: cell-based, Staphylococcus aureus; conditions: S. aureus DAR 5829, multi-resistant strain
Excerpt: as §1

S. aureus ATCC 6538 = format: cell-based, Staphylococcus aureus
Excerpt: as §1

E. faecalis ATCC 29212 = format: cell-based, Enterococcus faecalis
Excerpt: as §1

S. epidermidis BM3302 = format: cell-based, Staphylococcus epidermidis
Excerpt: as §1

[1] = tested on: Ps. aeruginosa ATCC 27853; format: cell-based, Pseudomonas aeruginosa; conditions: LB, 10^7 cfu/mL, 18 h at 37°C, peptide 0.2-100 μM, averaged over >=3 independent experiments in triplicate
Excerpt: as §1, with “Wells were either opaque, indicating stationary phase growth, or transparent indicating no growth. The lowest concentration showing no visible growth was considered as the MIC. After measurement of the MIC, the bactericidal activity was determined by the addition of resazurin dye (30 μL, 0.01% w/v) to each well [22]. The plates were further incubated at 37°C for 18 h. Wells in which the dye turned pink indicated live bacteria, whereas wells in which the dye remained blue indicated dead bacteria. The minimal bactericidal concentration (MBC) is the lowest concentration with blue coloration (99.9% of bacteria were killed). Three to five independent assays were performed in triplicate. Positive controls correspond to medium plus 0.2% formaldehyde and negative controls to medium without peptide.” left out

K. rhizophila ATCC 9341 = format: cell-based, Kocuria rhizophila
Excerpt: as §1

A549 cells = assay: Cytotoxicity, trypan blue exclusion; format: cell-based; conditions: A549 human lung carcinoma cells, 2-hour incubation at 37°C, 5% CO2, concentrations as high as 100 μM; 3 independent experiments in triplicate
Protocol: A549 cells (ATCC CCL-185), a human lung carcinoma cell line, were cultivated at 37°C, humid atmosphere and 5% CO2, in Petri dishes with DMEM Advanced medium (Gibco) supplemented with 5% of fetal bovine serum (FBS), 2 mM of glutamine, 100 U of penicillin and 50 μg/mL of streptomycin (Gibco). When the cells reached 80% confluence, the medium was discarded and the cells were washed with PBS 1×, before being treated with Trypsin 1× for 2 minutes to detach them form the culture dish. Cells were then resuspended in DMEM medium, seeded in a 48-well culture plate (500 000 cells/well), and either form of DMS-DA6 solubilized in PBS 1× was added and incubated for 2 hours at 37°C, 5% CO2. DMSO 30% was used as a positive control to induce cell death, and DMEM medium as negative control. After incubation, cell viability was assessed by trypan blue exclusion.

B. subtilis CIP 52.65 = format: cell-based, Bacillus subtilis subsp. subtilis
Excerpt: as §1

E. coli ATCC 8739 = format: cell-based, Escherichia coli
Excerpt: as §1

E. coli K12 = format: cell-based, Escherichia coli; conditions: LB, 10^7 cfu/mL, 18 h at 37°C, peptide 0.2-100 μM, averaged over >=3 independent experiments in triplicate
Excerpt: as §1

E. coli ML 35p = format: cell-based, Escherichia coli; conditions: LB, 10^7 cfu/mL, 18 h at 37°C, peptide 0.2-100 μM, averaged over >=3 independent experiments in triplicate
Excerpt: as §1

E. coli ATCC 35218 = format: cell-based, Escherichia coli; conditions: LB, 10^7 cfu/mL, 18 h at 37°C, peptide 0.2-100 μM, averaged over >=3 independent experiments in triplicate
Excerpt: as §1

E. faecium BM 4147 = format: cell-based, Enterococcus faecium; conditions: E. faecium BM 4147, multi-resistant strain
Excerpt: as §1

[2] = LB, 10^7 cfu/mL, 18 h at 37°C, averaged over >=3 independent experiments in triplicate
[3] = resazurin dye added after MIC, further 18 h at 37°C, 99.9% killed, averaged over >=3 experiments in triplicate

With `CC[C@H](C)[C@H](NC(=O)CNC(=O)[C@H](Cc1c[nH]c2ccccc12)NC(=O)[C@@H](NC(=O)CN)C(C)C)C(=O)N[C@@H](C)C(=O)N[C@@H](CCCCN)C(=O)N[C@H](C(=O)N[C@@H](C)C(=O)NCC(=O)N[C@@H](CCCCN)C(=O)N[C@H](C(=O)N[C@@H](CC(C)C)C(=O)NCC(=O)N[C@@H](CC(N)=O)C(=O)N[C@H](C(=O)N[C@@H](CC(C)C)C(=O)N1CCC[C@H]1C(=O)N[C@@H](Cc1c[nH]cn1)C(=O)N[C@H](C(=O)N[C@@H](Cc1ccccc1)C(=O)N[C@@H](CO)C(=O)N[C@@H](CO)C(=O)N[C@@H](CC(N)=O)C(=O)N[C@@H](CCC(N)=O)C(=O)N[C@@H](CO)C(=O)O)C(C)C)[C@@H](C)CC)C(C)C)[C@@H](C)CC` [DMS-DA6-OH] (H-GVWGIAKIAGKVLGNILPHVFSSNQS-OH) the MIC (S. aureus ATCC 29213; [2]) was 6.25 µM (≈ 16.8 µg/mL), the MBC (S. aureus ATCC 29213; [3]) was 25 µM (≈ 67.3 µg/mL) and the MIC (S. aureus ST 1065; [2]) was 25 µM (≈ 67.3 µg/mL). The MBC (S. aureus ST 1065; [3]) was 25 µM (≈ 67.3 µg/mL), the MIC (S. aureus DAR 5829; [2]) was 50 µM (≈ 135 µg/mL) and the MBC (S. aureus DAR 5829; [3]) was 50 µM (≈ 135 µg/mL). For the same molecule, the MIC (S. aureus ATCC 6538; [2]) was 12.5 µM (≈ 33.7 µg/mL), the MBC (S. aureus ATCC 6538; [3]) was 12.5 µM (≈ 33.7 µg/mL) and the MIC (E. faecalis ATCC 29212; [2]) was 100 µM (≈ 269 µg/mL). It also gave an MBC (E. faecalis ATCC 29212; [3]) of 100 µM (≈ 269 µg/mL), an MIC (S. epidermidis BM3302; [2]) of 25 µM (≈ 67.3 µg/mL) and an MBC (S. epidermidis BM3302; [3]) of 25 µM (≈ 67.3 µg/mL). For the same molecule, the MIC [1] was greater than 100 µM, the MIC (K. rhizophila ATCC 9341; [2]) was 6.25 µM (≈ 16.8 µg/mL) and the MBC (K. rhizophila ATCC 9341; [3]) was 12.5 µM (≈ 33.7 µg/mL). The “death of A549 cells (trypan blue exclusion)” value (A549 cells) was “neither DMS-DA6-OH (net charge +2) nor DMS-DA6-NH2 (net charge +3) resulted in the death”, the MIC (B. subtilis CIP 52.65; [2]) was 12.5 µM (≈ 33.7 µg/mL) and the MBC (B. subtilis CIP 52.65; [3]) was 12.5 µM (≈ 33.7 µg/mL). For the same molecule, the intact peptide remaining was greater than 90%, the MIC (E. coli ATCC 8739; [2]) was 50 µM (≈ 135 µg/mL) and the MBC (E. coli ATCC 8739; [3]) was 100 µM (≈ 269 µg/mL). It also gave an MIC (E. coli K12) greater than 100 µM, an MIC (E. coli ML 35p) greater than 100 µM and an MIC (E. coli ATCC 35218) greater than 100 µM. It also gave an MIC (E. faecium BM 4147; [2]) of 50 µM (≈ 135 µg/mL) and an MBC (E. faecium BM 4147; [3]) of 100 µM (≈ 269 µg/mL).
